The assay addresses Glycogen synthase kinase-3 alpha (Homo sapiens) (UniProt P49840). The assay is described as follows: concentration-response blocking of human GSK3A – biochemical, luminescence, cell-free homogeneous, retest, dose response (AID 463203). The following applies: GSK-3 alpha enzyme, ADP-Glo luminescence, 60 min.

The structures appear in SMILES notation. The source made the active and inactive calls.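 How the source made its calls: active means more than half of replicate measurements showing over 20% loss of kinase signal relative to plate controls; inconclusive means some but at most half of replicates over 20% loss; inactive means no replicate over 20% signal loss.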 Some results are limits rather than exact numbers.

Consider 64 compounds from PubChem BioAssay AID463203 (Broad Institute, 2010).

Sequence of Glycogen synthase kinase-3 alpha (Homo sapiens) (P49840 whole entry, looked up): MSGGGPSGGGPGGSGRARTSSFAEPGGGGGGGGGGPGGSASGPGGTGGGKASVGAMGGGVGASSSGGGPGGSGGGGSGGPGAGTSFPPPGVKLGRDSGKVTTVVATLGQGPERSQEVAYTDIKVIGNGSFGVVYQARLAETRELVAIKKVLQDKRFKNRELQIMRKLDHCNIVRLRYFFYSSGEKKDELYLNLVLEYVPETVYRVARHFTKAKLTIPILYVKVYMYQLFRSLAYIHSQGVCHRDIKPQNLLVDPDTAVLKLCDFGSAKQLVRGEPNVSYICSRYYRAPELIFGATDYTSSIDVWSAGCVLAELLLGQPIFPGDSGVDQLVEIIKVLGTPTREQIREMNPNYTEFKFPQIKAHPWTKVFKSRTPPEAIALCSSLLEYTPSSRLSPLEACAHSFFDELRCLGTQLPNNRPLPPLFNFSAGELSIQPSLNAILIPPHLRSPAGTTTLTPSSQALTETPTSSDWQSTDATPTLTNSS

Consider `O=C(Nc1ccccc1-c1nnc(SCc2ccc(Cl)cc2Cl)o1)c1ccccc1`, for which the AC50 is > 30 µM (inactive).

In the case of `CC1CCCCC12NC(=O)N(CC(=O)Nc1sccc1C(N)=O)C2=O` (centres undefined), the AC50 is > 30 µM (inactive).

Turning to `COc1ccc(-c2cc(C(F)(F)F)nc(SCC(=O)NCc3ccco3)n2)cc1OC`, the AC50 was > 30 µM (inactive).

In the case of `Cc1sc(NC(=S)NC(=O)C(C)(C)C)c(C(N)=O)c1C`, the AC50 was > 30 µM (inactive).

On to `c1ccc2c(c1)Sc1ccccc1-n1cnnc1-2`, for which the AC50 was > 30 µM (inactive).

On to `CCC(C)Sc1nc2c(c(=O)[nH]1)C(c1cccs1)C1=C(CCCC1=O)N2` (centres undefined), for which the AC50 is > 30 µM (inactive).

With `Cc1ccc(CNc2ccc([N+](=O)[O-])cc2C(N)=O)cc1`, the AC50 is > 30 µM (inactive).

`Nc1nc(Nc2cccc(F)c2)nc(NCc2ccco2)c1[N+](=O)[O-]`: the concentration at half-maximal activity (AC50) was 4.08 µM.

For `CCOC(=O)Cc1c[nH]c2ccccc12`, the AC50 is > 30 µM (inactive).

For `CNC(=O)CSc1nnc(-c2ccco2)n1-c1cccc(OC)c1`, the AC50 was > 30 µM (inactive).

On to `Nc1ncnc2c1ncn2[C@@H]1O[C@H](CNCc2ccccc2)[C@@H](O)[C@H]1O`, for which the AC50 was > 30 µM (inactive).

Turning to `CCN(CC)CCCNc1ncnc2scc(-c3ccc(F)cc3)c12`, the AC50 is > 30 µM (inactive).

`CSc1ccc(C2C3(C#N)C(N)=NC4(OCCO4)C23C#N)cc1` (centres undefined): the AC50 was > 30 µM (inactive).

With `CC1CCN(Cc2c(C(=O)N/N=C/c3ccc(C(C)(C)C)cc3)nnn2-c2nonc2N)CC1`, the AC50 is > 30 µM (inactive).

Consider `COCCNc1cc(N)c([N+](=O)[O-])cc1[N+](=O)[O-]`, for which the AC50 was > 30 µM (inactive).

`OCC1OC(n2cnc3c(NCCc4ccccc4)ncnc32)C(O)C1O` (centres undefined): the AC50 was > 30 µM (inactive).

For the compound `CCOCC(=O)Nc1nc2ccc(OCC)cc2s1`, the AC50 was > 30 µM (inactive).

For the compound `Cc1cc(N2CCN(c3ccccc3)CC2)n2nnnc2n1`, the AC50 is > 30 µM (inactive).

With `CCOc1cccc(-c2c(C(=O)N/N=C/c3ccco3)nnn2-c2nonc2N)c1`, the concentration at half-maximal activity (AC50) was 10.5 µM.

Turning to `Cc1ccc(NC(=O)c2cc(-n3cnnc3)ccc2Cl)cc1`, the AC50 was > 30 µM (inactive).

With `Cn1c(SCc2cnc(-c3ccccc3)s2)nnc1C1COc2ccccc2O1` (centres undefined), the AC50 was > 30 µM (inactive).

Regarding `Cc1ccc2nc(-c3ccncc3)[nH]c2c1`, the AC50 was > 30 µM (inactive).

Turning to `O=c1c2ccccc2[nH]c2ccccc12`, the AC50 was > 30 µM (inactive).

Consider `COC(=O)C1=C(C)N(C)C(=O)/C1=C\c1ccco1`, for which the AC50 is > 30 µM (inactive).

Turning to `COc1ccc(/C=C2\Oc3cc(OCC(=O)N4CCC[C@H]4C(=O)O)ccc3C2=O)c(OC)c1`, the AC50 is > 30 µM (inactive).

Consider `COc1ccc(C(=O)Nc2nc(C)c(C)s2)cc1OC`, for which the AC50 is > 30 µM (inactive).

Take `Brc1cccc(CSc2nnc(-c3ccncc3)o2)c1`: the AC50 was 7.58 µM.

In the case of `S=C(Nc1cccnc1)Nc1cccc2cnccc12`, the AC50 is > 30 µM (inactive).

In the case of `Cc1cccc(NC(=O)CSc2nc3[nH]ncc3c(=O)n2-c2ccccc2)c1`, the AC50 is > 30 µM (inactive).

With `Cc1cccc(-c2nnc(SCc3nc4ccccc4[nH]3)n2Cc2ccco2)c1`, the AC50 is > 30 µM (inactive).

As to `COc1ccccc1C(=O)NNC(=O)c1cccc(Br)c1`, the AC50 was > 30 µM (inactive).

For `O=[N+]([O-])c1cc(S(=O)(=O)c2ccc(N3CCCCC3)c([N+](=O)[O-])c2)ccc1N1CCCCC1`, the AC50 is > 30 µM (inactive).

In the case of `COc1cc(/C=N/NC(=O)c2cccs2)ccc1O`, the AC50 is > 30 µM (inactive).

With `CCOC(=O)N1CCC(N2CCN(S(=O)(=O)c3ccc4ccccc4c3)CC2)CC1`, the AC50 was > 30 µM (inactive).

On to `CCOc1cccc(-c2c(C(=O)N/N=C/c3cccnc3)nnn2-c2nonc2N)c1`, for which the AC50 is 4.67 µM.

On to `NC(=O)c1ccsc1NC(=O)C1CCCCC1`, for which the AC50 was > 30 µM (inactive).

For `COc1ccc(C(=O)C[n+]2cccc(Br)c2)cc1`, the AC50 was > 30 µM (inactive).

Consider `N#Cc1cc(-c2cccc(Cl)c2)c[nH]c1=O`, for which the AC50 is > 30 µM (inactive).

For `O=C(NCCCn1ccnc1)C(Cl)(Cl)Cl`, the AC50 is > 30 µM (inactive).

`COc1ccccc1NC(=O)CSc1nnc(-c2ccccc2)o1`: the AC50 is > 30 µM (inactive).

With `Cc1c(C(=O)OC2CCCCC2)[nH]c2c1C(=O)CC(C)(C)C2`, the AC50 was > 30 µM (inactive).

Take `C[C@@H]1O[C@@H](Oc2c(-c3ccc(O)c(O)c3)oc3cc(O)cc(O)c3c2=O)[C@H](O)[C@H](O)[C@H]1O`: the AC50 was 29.8 µM.

In the case of `O=[N+]([O-])c1ccccc1-c1cc(-c2ccccc2O)n[nH]1`, the AC50 is > 30 µM (inactive).

In the case of `CCn1c(=O)[nH]c(=O)c2c(N)c(C(=O)c3cc(F)ccc3F)sc21`, the AC50 was 10.4 µM.

For the compound `Cc1cccc(C)c1OCC(=O)N=Nc1c(O)[nH]c2ccc(Br)cc12`, the AC50 is > 30 µM (inactive).

For `Cc1nc(SCCC(C)C)c([N+](=O)[O-])[nH]1`, the AC50 is > 30 µM (inactive).

In the case of `C=CCOc1ccc(/C=N/n2cncn2)cc1OC`, the AC50 is > 30 µM (inactive).

`COc1ccccc1NC(=O)c1cc(Cl)ccc1NC(=O)c1ccco1`: the AC50 is > 30 µM (inactive).

As for `C/C(=N\NC(=O)c1nnn(-c2nonc2N)c1-c1cccs1)c1ccncc1`, the AC50 is 1.02 µM.

For `COc1cc(C2C(C#N)=C(N)Oc3n[nH]c(-c4cccnc4)c32)ccc1OCC(N)=O` (centres undefined), the AC50 is > 30 µM (inactive).

Regarding `O=C(NCC1CCN(Cc2ccccc2Cl)CC1)Nc1cccc(Cl)c1`, the AC50 was > 30 µM (inactive).

As for `CCc1cc(C(=O)OC)c(NC(=O)CN2CCN(C(=O)c3ccco3)CC2)s1`, the AC50 is > 30 µM (inactive).

`CCn1c(C)nc2cc(-c3nc4n(n3)Cc3ccccc3-4)ccc21`: the AC50 is 16.1 µM.

As for `Cc1ccccc1OCCSc1nnc(C)n1-c1ccccc1`, the AC50 was > 30 µM (inactive).

As for `Cc1cc(C)c(S(=O)(=O)Nc2ccnc(-c3cccnc3)n2)c(C)c1`, the AC50 was 5.52 µM.

On to `CCOC(=O)c1c(NC(=O)CN2C(=O)NC3(CCCCC3C)C2=O)sc(C)c1C` (centres undefined), for which the AC50 was > 30 µM (inactive).

Consider `c1ccc(-c2noc(-c3ccc4c(c3)OCO4)n2)cc1`, for which the AC50 is > 30 µM (inactive).

With `C#CCOCCOCCOCCNc1nc(N2CCN(C(=O)CCCCCCCCCCNC(=O)[C@H](CCCCN)n3cc(C)nn3)CC2)nc(N2CCN(C(=O)CCCCCCCCCCNC(=O)[C@H](CCCN=C(N)N)n3cc(C[C@@H](C)CC)nn3)CC2)n1`, the AC50 was > 30 µM (inactive).

On to `CC1(C)CC(=O)C2=C(C1)Nc1[nH]n(-c3ccccc3)c(=O)c1C2c1ccc2c(c1)OCO2` (centres undefined), for which the AC50 was > 30 µM (inactive).

As to `O=C(Cn1c(NCCO)nc2ccccc21)NCC1CCCO1` (centres undefined), the AC50 was > 30 µM (inactive).

For the compound `CCc1ccc(/C=c2\s/c(=C\C(=O)C(C)(C)C)[nH]c2=O)cc1`, the AC50 was > 30 µM (inactive).

With `CCC(C)Nc1nc(N)c([N+](=O)[O-])c(N2CCCCCC2)n1` (centres undefined), the concentration at half-maximal activity (AC50) was 10.9 µM.

`Cc1cccc(N(CC(O)CN2CCCC2)S(=O)(=O)c2ccccc2)c1` (centres undefined): the AC50 is > 30 µM (inactive).

Turning to `O=c1[nH]c2c(s1)C(c1ccco1)C1C3CCC(C3)C1S2` (centres undefined), the AC50 is 15.3 µM.
